According to patent US9724416B2, “Composition for improving or promoting hair growth containing, as active ingredients, photosensitizer irradiated with light and peptide, and method using same” (GWANGJU INSTITUTE OF SCIENCE AND TECHNOLOGY, priority 2012, dated 2017):
Entries after “also recorded” stand apart in the source; their conditions may differ.

Key:
C57BL/6N mouse [1] = assay: Hair growth promoting effects using a mouse (first test); type: in vivo; conditions: for hair growth amounts compared to the control group: FIGS. 7 and 8 (day 10, day 12); for hair growth promoting effects with the naked eye compared to the untreated group: day 5 after sample treatment; for hair growth promoting effects compared to the untreated group: day 8 after sample treatment (FIG. 6B); for hair growth levels: until day 3, compared across groups incl. untreated
Experimental: (§1) ALA and ALA-peptide which were major test materials of the present invention were dissolved in pure water to a concentration of […] (100 ppm) to be used.
A 7-week-old C57BL/6N mouse (Jungang Lab. Animal Inc., KOR) was used for this study, and hair of the mouse's back was completely removed using a wax at the age of 49 days to 51 days at which the C57BL/6N mouse enters […] for the second time. In order to verify hair growth promoting effects of the test materials, it was treated once a day for 24 days. More particularly, ALA and the ALA-peptide were sprayed 3 times before LED radiation, and the LED treated groups were verified after being treated for 5 minutes.

C57BL/6N mouse [2] = assay: Hair growth promoting effects using a mouse (second test); type: in vivo
Experimental: A 10-fold volume of primary distilled water was put into 100 g of Cimicifuga heracleifolia, Baikl skullcap, and Lance Asiabell dry matters, which were hot water extracted for 6 hours at 100° C. and were then filtered. The filtered extracts were pulverized through freeze-dried and then stored at 4° C. until used. The pulverized natural extracts were used in a mouse experiment at a concentration of 1 mg/ml.
as §1
A 7-week-old C57BL/6N mouse was used for this study, and hair of the mouse's back was completely removed using a wax at the age of 49 days to 51 days at which the C57BL/6N mouse enters […] for the second time. In order to verify hair growth promoting effects of the test materials, it was treated once a day for 24 days. More particularly, the ALA and ALA-peptide were sprayed 3 times before LED radiation, and the LED treated groups were verified after treated for 5 minutes.

In the case of “5-Aminolevulinic Acid (ALA)-Peptide (GHK) [ALA-peptide]”, the “hair growth amounts compared to the control group” value (C57BL/6N mouse [1]; LED-Blue radiation) is reported as “significant hair growth promoting effects”, the “hair growth promoting effects with the naked eye compared to the untreated group” value (C57BL/6N mouse [1]; LED-Blue radiation) is reported as “distinct differences” and the “hair growth promoting effects compared to the untreated group” value (C57BL/6N mouse [1]; LED-Blue radiation) is reported as “about 7 fold”. The “hair growth promoting effects through continuous treatments” value (C57BL/6N mouse [1]; LED-Red radiation compared to LED-Blue radiation, FIGS. 9 to 14 (day 14 to day 24)) was “more superior hair growth promoting effects than the LED-Blue+ALA-peptide treated group”, the “hair growth amounts compared to the control group” value (C57BL/6N mouse [1]; LED-Red radiation) was “significant hair growth promoting effects; also recorded: most superior hair growth promoting effect” and the “hair growth promoting effects with the naked eye compared to the untreated group” value (C57BL/6N mouse [1]; LED-Red radiation) was “distinct differences”. For the same compound, the “hair growth promoting effects compared to the untreated group” value (C57BL/6N mouse [1]; LED-Red radiation) was “about 10 fold”, the “hair growth promoting effects compared to the untreated group (in words)” value (C57BL/6N mouse [2]; LED-Red radiation, day 9 after sample treatment) was “significant hair growth promoting effects” and the “hair growth amounts compared to the untreated group” value (C57BL/6N mouse [2]; LED-Red radiation, extracts 1 mg/ml) was “increasing effects in the significant hair growth amounts”. The “hair growth levels compared to untreated group” value (C57BL/6N mouse [2]; without LED radiation, FIGS. 16 to 19 (day 0 to day 7)) was “little differences in hair growth levels”.
In the case of Cl.NCC(=O)CCC(=O)O [ALA, 5-aminolevulinic acid, reference compound], the “hair loss phenomenon compared to other treated groups” value (C57BL/6N mouse [1]; LED-Blue radiation, day 30 of observation (FIG. 15)) is reported as “considerable hair loss phenomenon”, the hair growth levels (C57BL/6N mouse [1]; LED-Blue radiation) is reported as “no differences in hair growth levels” and the hair growth levels (C57BL/6N mouse [1]; LED-Red radiation) is reported as “no differences in hair growth levels”.
